Active and inactive are the calls of the source. The calls are words filed in the database; no cut-off is given here.
Assays:
[1] = Compound tested for the inhibition of ADP-ribosylation in protein synthesis; Inactive; type: functional
[2] = Compound tested for the inhibition of IMP-dehydrogenase causing a profound depletion of GMP anf accumulation of IMP; Active; type: functional
CCRF-CEM = assay: In vitro inhibitory activity against the growth of CCRF-CEM tumor cells at a concentration of 13.0 ug/mL; Inactive; type: functional, cell-based; details: Homo sapiens
MOLT-3 = assay: In vitro inhibitory activity against the growth of F-Molt-3 tumor cells at a concentration of 15.0 ug/mL; Inactive; type: functional, cell-based; details: Homo sapiens
HL-60 = assay: In vitro inhibitory activity against the growth of HL-60 tumor cells at a concentration of 24.0 ug/mL; Inactive; type: functional, cell-based; details: Homo sapiens
P815 = assay: In vitro inhibitory activity against the growth of P-815 tumor cells at a concentration of 16.0 ug/mL; Inactive; type: functional, cell-based; details: Mus musculus

SMILES	Activity [1]	Activity [2]	further results
C[n+]1cc(C(N)=O)cc([C@@H]2O[C@H](COP(=O)([O-])OP(=O)(O)OC[C@@H]3O[C@H](n4cnc5c(N)ncnc54)[C@@H](O)[C@H]3O)[C@@H](O)[C@H]2O)c1	inactive		
NC(=O)c1cncc([C@@H]2O[C@H](COP(=O)(O)OP(=O)(O)OC[C@@H]3O[C@H](n4cnc5c(N)ncnc54)[C@@H](O)[C@H]3O)[C@@H](O)[C@H]2O)c1	inactive		
NC(=O)c1csc([C@@H]2O[C@H](CO)[C@@H](O)[C@H]2O)n1		Active	
NC(=O)c1csc([C@H]2O[C@@H](COP(=O)(O)OP(=O)(O)OC[C@H]3O[C@@H](n4cnc5c(N)ncnc54)[C@H](O)[C@@H]3O)[C@H](O)[C@@H]2O)n1		Active	
C[n+]1cc(C(N)=O)cc(C2O[C@H](CO)[C@@H](O)[C@H]2O)c1 (single isomer, unassigned)			inhibition (CCRF-CEM): inactive; inhibition (MOLT-3): inactive; inhibition (HL-60): inactive; inhibition (P815): inactive

Reference: ChEMBL document CHEMBL1123746, “Synthesis of 5-beta-D-ribofuranosylnicotinamide and its N-methyl derivative. The isosteric and isoelectronic analogues of nicotinamide nucleoside” (1987)
